One may read the IC50 as the concentration at which inhibition is half-maximal.

Read-outs that look alike come from different tables or passages of the source.

This assay has as its target T1, human KSP motor domain (KSP(367H)) (Homo sapiens, UniProt P52732).
T1 construct: were used to amplify the motor domain and the neck linker region; made in house; host or cells: E. coli BL21 (DE3), pRSETa
T1 sequence (P52732 18-359 limits assumed): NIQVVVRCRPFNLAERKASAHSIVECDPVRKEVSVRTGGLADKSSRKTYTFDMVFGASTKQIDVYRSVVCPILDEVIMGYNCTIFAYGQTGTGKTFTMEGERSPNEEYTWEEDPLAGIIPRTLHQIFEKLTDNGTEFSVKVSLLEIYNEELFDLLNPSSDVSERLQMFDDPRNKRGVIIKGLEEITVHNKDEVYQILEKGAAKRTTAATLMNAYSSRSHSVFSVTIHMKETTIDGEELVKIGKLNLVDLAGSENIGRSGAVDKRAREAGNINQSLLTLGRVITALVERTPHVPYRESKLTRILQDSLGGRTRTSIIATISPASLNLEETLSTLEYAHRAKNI
Description: Kinesin ATPase In Vitro Assay. The assay is classed as biochemical. The protocol: I. Kinesin ATPase In Vitro Assay
The N-terminal primer 5′-[…] (SEQ. ID. NO.: 1) and the C-terminal primer 5′-[…] […] […] The PCR products were digested with AseI and XhoI, ligated into the NdeI/XhoI digestion product of pRSETa (Invitrogen) and transformed into E. coli BL21 (DE3).
Cells were grown at 37° C. to an OD600 of 0.5. After cooling the culture to room temperature expression of KSP was induced with 100 μM IPTG and incubation was continued overnight. Cells were pelleted by centrifugation and washed once with ice-cold PBS. Pellets were flash-frozen and stored −80° C.
Cell pellets were thawed on ice and resuspended in lysis buffer (50 mM K-HEPES, pH 8.0, 250 mM KCl, 0.1% Tween, 10 mM imidazole, 0.5 mM Mg-ATP, 1 mM PMSF, 2 mM benzimidine, 1× complete protease inhibitor cocktail (Roche)). Cell suspensions were incubated with 1 mg/ml lysozyme and 5 mM β-mercaptoethanol on ice for 10 minutes, followed by sonication (3×30 sec). All subsequent procedures were performed at 4° C. Lysates were centrifuged at 40,000×g for 40 minutes. Supernatants were diluted and loaded onto an SP Sepharose column (Pharmacia, 5 ml cartridge) in buffer A (50 mM K-HEPES, pH 6.8, 1 mM MgCl2, 1 mM EGTA, 10 μM Mg-ATP, 1 mM DTT) and eluted with a 0 to 750 mM KCl gradient in buffer A. Fractions containing KSP were pooled and incubated with Ni-NTA resin (Qiagen) for one hour. The resin was washed three times with buffer B (Lysis buffer minus PMSF and protease inhibitor cocktail), followed by three 15-minute incubations and washes with buffer B. Finally, the resin was incubated and washed for 15 minutes three times with buffer C (same as buffer B except for pH 6.0) and poured into a column. KSP was eluted with elution buffer (identical to buffer B except for 150 mM KCl and 250 mM imidazole). KSP-containing fractions were pooled, made 10% in sucrose, and stored at −80° C.
Microtubules are prepared from tubulin isolated from bovine brain. Purified tubulin (>97% MAP-free) at 1 mg/ml is polymerized at 37° C. in the presence of 10 μM paclitaxel, 1 mM DTT, 1 mM GTP in BRB80 buffer (80 mM K-PIPES, 1 mM EGTA, 1 mM MgCl2 at pH 6.8). The resulting microtubules are separated from non-polymerized tubulin by ultracentrifugation and removal of the supernatant. The pellet, containing the microtubules, is gently resuspended in 10 μM paclitaxel, 1 mM DTT, 50 μg/ml ampicillin, and 5 μg/ml chloramphenicol in BRB80.
The kinesin motor domain is incubated with microtubules, 1 mM ATP (1:1 MgCl2: Na-ATP), and compound at 23° C. in buffer containing 80 mM K-HEPES (pH 7.0), 1 mM EGTA, 1 mM DTT, 1 mM MgCl2, and 50 mM KCl. […] Free phosphate from the ATP hydrolysis reaction is measured via a quinaldine red/ammonium molybdate assay by adding a […] of quench C (e.g., to a mixture of 40 μl reaction volume+40 μl stop buffer is then added 120 μl quench C). […] Quench C is a 2:1 ratio of quench A:quench B The reaction is incubated for 5-10 minutes at 23° C., and the absorbance of the phospho-molybdate complex is measured at 540 nm.

[1] abbreviates: kinesin motor domain with microtubules, 1 mM ATP, 23° C., read-out: IC50.

On to `CON(C)C(=O)C1=NN(c2cc(C)ccc2F)CC1(CCCO)c1ccccc1` (racemic) [Compound 2-1, (±)-1-(2-fluoro-5-methylphenyl)-4-(3-hydroxypropyl)-N-methoxy-N-methyl-4-phenyl-4,5-dihydro-1H-pyrazole-3-carboxamide], for which the concentration for half-maximal inhibition (IC50) under setting [1] is at most 50 µM.

In the case of `CC(=O)C1=NN(c2cc(C)ccc2F)CC1(CCCN(C)C)c1ccccc1` (racemic) [Compound 2-3, (±)-(1-[4-[3-(dimethylamino)propyl]-1-(2-fluoro-5-methylphenyl)-4-phenyl-4,5-dihydro-1H-pyrazol-3-yl]ethanone], the 50% inhibitory concentration (IC50) is at most 50 µM.

On to `CC(=O)C1=NN(c2cccc(F)c2)CC1c1ccccc1` (racemic) [Compound 3-5, (±)-1-[1-(3-fluorophenyl)-4-phenyl-4,5-dihydro-1H-pyrazol-3-yl]ethanone], for which, under setting [1], the IC50 was at most 50 µM.

Turning to `CC(=O)c1nn(-c2cc(F)ccc2F)cc1-c1ccccc1` [Compound 4-7, 1-[1-(2,5-difluorophenyl)-4-phenyl-1H-pyrazol-3-yl]ethanone], under setting [1], the half-inhibitory concentration (IC50) was at most 50 µM.

As to `CCOC(=O)C1=NN(c2cc(F)ccc2F)C(N2CCOCC2)C1c1ccccc1` (racemic) [Compound 44, (±)-Ethyl 1-(2,5-difluorophenyl)-5-morpholin-4-yl-4-phenyl-4,5-dihydro-1H-pyrazole-3-carboxylate], the half-maximal inhibitory concentration (IC50) under setting [1] was at most 50 µM.

For the origin of these results see patent US20080045492A1, “Mitotic Kinesin Inhibitors” (priority 2004, published 2008).
